Test results as given in ChEMBL document CHEMBL5032530, “Discovery of Benzocyclic Sulfone Derivatives as Potent CXCR2 Antagonists for Cancer Immunotherapy” (J Med Chem, 2021).

Biological target: T1, C-X-C chemokine receptor type 2 (Homo sapiens, UniProt P25025)
T1 sequence (P25025 whole entry): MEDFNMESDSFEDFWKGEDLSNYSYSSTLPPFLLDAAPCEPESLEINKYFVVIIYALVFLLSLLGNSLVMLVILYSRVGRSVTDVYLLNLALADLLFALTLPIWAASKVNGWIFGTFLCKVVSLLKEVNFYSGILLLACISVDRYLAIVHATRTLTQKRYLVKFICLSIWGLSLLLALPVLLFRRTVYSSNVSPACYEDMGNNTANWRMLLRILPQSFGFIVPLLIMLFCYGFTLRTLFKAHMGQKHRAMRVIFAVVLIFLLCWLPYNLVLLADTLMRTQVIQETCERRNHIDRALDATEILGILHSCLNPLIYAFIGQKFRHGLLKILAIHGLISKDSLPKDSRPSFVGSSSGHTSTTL
Assay: Antagonist activity at human CXCR2 expressed in HEK293 cells assessed as inhibition of CXCL8-induced beta-arrestin recruitment preincubated for 30 mins followed by addition of agonist incubated for 90 mins by beta arrestin assay
Assay type: functional, cell-based

Row | IC50 [nM] | SMILES
1 | 5920 | O=C(Nc1ccc(Cl)cc1Cl)Nc1ccc2c(c1O)S(=O)(=O)CC=C2
2 | 420 | Cc1c(F)cccc1NC(=O)Nc1ccc2c(c1O)S(=O)(=O)CCC2=O
3 | 3450 | O=c1c(Nc2ccc3c(c2O)S(=O)(=O)CCC3)c(Nc2cccc(F)c2Cl)c1=O
4 | 400 | O=C(Nc1ccc2c(c1O)S(=O)(=O)CCC2=O)Nc1cccc(Cl)c1Cl
5 | 78 | O=c1c(Nc2ccccc2Br)c(Nc2ccc3c(c2O)S(=O)(=O)CC=C3)c1=O
6 | 130 | O=C(Nc1ccc2c(c1O)S(=O)(=O)CC=C2)Nc1cccc(Cl)c1Cl
7 | 9990 | O=c1c(Nc2ccc3c(c2O)S(=O)(=O)CCC3)c(Nc2cccc(Cl)c2Cl)c1=O
8 | 66 | O=C(Nc1ccccc1Cl)Nc1ccc2c(c1O)S(=O)(=O)CC=C2
9 | 4510 | O=C(Nc1ccccc1C(F)(F)F)Nc1ccc2c(c1O)S(=O)(=O)CCC2
10 | 210 | O=C(Nc1ccccc1Cl)Nc1ccc2c(c1O)S(=O)(=O)CCC2
11 | 140 | O=C(Nc1ccccc1Br)Nc1ccc2c(c1O)S(=O)(=O)CCC2
12 | 1600 | O=C(Nc1ccccc1C(F)(F)F)Nc1ccc2c(c1O)S(=O)(=O)CC=C2
13 | 1480 | O=C(Nc1ccc(Br)cc1)Nc1ccc2c(c1O)S(=O)(=O)CC=C2
14 | 150 | O=c1c(Nc2ccccc2Br)c(Nc2ccc3c(c2O)S(=O)(=O)CCC3)c1=O
15 | 49 | O=C(Nc1ccccc1Br)Nc1ccc2c(c1O)S(=O)(=O)CC=C2
16 | 2500 | O=c1c(Nc2ccc3c(c2O)S(=O)(=O)CC=C3)c(Nc2cccc(Cl)c2Cl)c1=O
17 | > 10000 | O=C(Nc1ccc(Br)cc1)Nc1ccc2c(c1O)S(=O)(=O)CCC2
